{
  "source": "patent US7229646B2",
  "about": "“Methods and compositions for modulating immune response and for the treatment of inflammatory disease” (Foodscience Corporation, priority 1999, dated 2007)",
  "key": {"CD19^+ B cell": {"test_system": "CD19^+ B cell", "test": "Spleen lymphocyte populations by flow cytometry, CD19+ B cells", "format": "in vivo, MRI-lpr mice", "details": "flow cytometry after twelve weeks (FIG. 3)", "description": "(§1) MRI-lpr mice were used to study the effects of a combination of DMG and PCE on components of the immune system and on the progression of the SLE disease. Forty MRI-lpr mice were divided into four groups of ten mice each: a control group, a PCE treated group, a DMG treated group, and a PCE-DMG treated group. The control group was given standard mouse chow and water. […] The PCE group was given a PCE-mouse chow mix and water. The PCE-DMG combination group was given a PCE-mouse chow mix and DMG water. […] The mice were given food and water ad libitum. It is estimated that the mice, with a size range of 30–50 grams, consumed about 1–3 mg/day of DMG and 2–6 mg/day of PCE. The mice were weighed weekly and 100 ul of blood was collected via orbital bleed on a weekly basis. The collected blood was centrifuged and the serum was recovered and stored at −20° C. for analysis at the end of the twelve week experiment. After twelve weeks, the mice were sacrificed and the spleens, kidneys, and livers were harvested. […] The spleens were processed and the cells recovered were quantified by flow cytometry using fluorescent anti-CD4, anti-CD8 and anti-CD19 antibodies (Pharmingen, San Diego, Calif.). Cytokine levels in the serum and anti-single stranded and double stranded DNA antibody levels in the serum were determined using an enzyme linked immunosorbent assay (ELISA)."}, "il-10": {"test_system": "il-10", "test": "Serum cytokine ELISA, il-10", "format": "in vivo, MRI-lpr mice", "details": "ELISA (FIG. 2)", "description": "as §1"}, "il-6": {"test_system": "il-6", "test": "Serum cytokine ELISA, il-6", "format": "in vivo, MRI-lpr mice", "details": "ELISA (FIG. 2)", "description": "as §1"}, "[1]": {"test_system": "B-cells, T cells and macrophages", "details": "in humans; cited from earlier work"}, "anti-ssDNA antibody": {"test_system": "anti-ssDNA antibody", "test": "Serum anti-ssDNA antibody ELISA", "format": "in vivo, MRI-lpr mice", "details": "time course to 11th week; versus control (FIG. 5)", "description": "as §1"}, "CD8^+ T cells": {"test_system": "CD8^+ T cells", "test": "Spleen lymphocyte populations by flow cytometry, CD8+ T cells", "format": "in vivo, MRI-lpr mice", "details": "flow cytometry after twelve weeks (FIG. 3)", "description": "as §1"}, "[2]": {"test_system": "humoral and cellular immunity", "details": "Graber et al., 1981; cited from earlier work"}, "lactic acid levels": {"test_system": "lactic acid levels", "details": "animals under extreme stress; cited from earlier work"}},
  "data": [
    {"molecule": "CN(C)CC(=O)O", "note": "[DMG, N,N-dimethylglycine]", "values": [
      {"measurement": "CD19^+ B cell percentages", "setting": "CD19^+ B cell", "result": "No effect"},
      {"measurement": "levels of serum il-10", "setting": "il-10", "result": "higher levels of IL-10 than in controls"},
      {"measurement": "levels of serum il-6", "setting": "il-6", "result": "significantly lower levels of il-6 than control animals"},
      {"measurement": "B-cell antibody responses", "setting": "[1]", "result": "much higher antibody responses"},
      {"measurement": "activity of T cells and macrophages", "setting": "[1]", "result": "enhanced"},
      {"measurement": "anti-ssDNA antibody levels in the serum", "setting": "anti-ssDNA antibody", "result": "appeared to be leveling out"},
      {"measurement": "CD8^+ T cells", "setting": "CD8^+ T cells", "result": "No effect"},
      {"measurement": "effect on humoral and cellular immunity", "setting": "[2]", "result": "stimulation of both humoral and cellular immunity"},
      {"measurement": "lactic acid levels", "setting": "lactic acid levels", "result": "decreased lactic acid levels"},
      {"measurement": "oxygen utilization", "setting": "lactic acid levels", "result": "increased oxygen utilization"}
    ]}
  ]
}
